ChEMBL document CHEMBL1135109, “Discovery and initial SAR of imidazoquinoxalines as inhibitors of the Src-family kinase p56(Lck)” (Bioorg Med Chem Lett, 2002)

Target: Tyrosine-protein kinase Lck (Homo sapiens, UniProt P06239)
Sequence (P06239 whole entry): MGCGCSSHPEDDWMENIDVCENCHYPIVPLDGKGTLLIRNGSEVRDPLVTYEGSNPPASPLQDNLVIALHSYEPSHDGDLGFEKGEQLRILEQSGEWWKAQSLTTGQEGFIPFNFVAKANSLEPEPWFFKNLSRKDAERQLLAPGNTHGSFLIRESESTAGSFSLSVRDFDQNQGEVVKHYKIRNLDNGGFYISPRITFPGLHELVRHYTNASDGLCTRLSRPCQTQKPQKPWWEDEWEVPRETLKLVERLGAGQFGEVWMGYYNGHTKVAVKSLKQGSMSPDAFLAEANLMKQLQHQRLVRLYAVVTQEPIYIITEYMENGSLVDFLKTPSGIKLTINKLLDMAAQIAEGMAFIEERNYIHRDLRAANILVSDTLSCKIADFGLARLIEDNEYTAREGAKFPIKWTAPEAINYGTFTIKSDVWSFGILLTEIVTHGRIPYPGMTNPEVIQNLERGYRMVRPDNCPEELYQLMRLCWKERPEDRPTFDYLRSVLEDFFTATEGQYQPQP
Description: Inhibitory activity against recombinant p56 Lck tyrosine kinase expressed as a His-tagged protein in insect cells using a baculovirus expression system

| SMILES | IC50 [nM] |
| --- | --- |
| CCCCCCNc1nc2ccccc2n2cncc12 | > 12500 |
| Clc1ccccc1Nc1nc2ccccc2n2cncc12 | 60 |
| COc1ccc2c(nc(Nc3c(C)cccc3Cl)c3cncn32)c1OC | 2 |
| O=[N+]([O-])c1ccccc1Nc1nc2ccccc2n2cncc12 | > 12500 |
| COc1ccc2c(nc(Nc3c(C)cccc3Cl)c3cnc(C(C)O)n32)c1OC (stereo not drawn) | 53 |
| c1ccc2c(c1)nc(NC1CCCCC1)c1cncn12 | 3170 |
| O=C(Nc1nc2ccccc2n2cncc12)c1c(Cl)cccc1Cl | 810 |
| Cc1cccc(C)c1-c1nc2ccccc2n2cncc12 | > 12500 |
| Cc1ccc(Nc2nc3ccccc3n3cncc23)c(Cl)c1 | 240 |
| CN(c1ccccc1Cl)c1nc2ccccc2n2cncc12 | > 12500 |
| Brc1ccccc1Oc1nc2ccccc2n2cncc12 | 3700 |
| COc1ccc2c(nc(Nc3c(C)cccc3Cl)c3cnc(CO)n32)c1OC | 6.2 |
| c1cncc(Nc2nc3ccccc3n3cncc23)c1 | 820 |
| Cc1cc(C)c(Nc2nc3ccccc3n3cncc23)c(C)c1 | 40 |
| O=C(Nc1nc2ccccc2n2cncc12)c1ccccc1Br | 60 |
| c1ccc(Nc2nc3ccccc3n3cncc23)cc1 | 890 |
| Brc1ccccc1Sc1nc2ccccc2n2cncc12 | > 12500 |
| c1ccc2c(c1)nc(Nc1ccncc1)c1cncn12 | > 12500 |
| COc1ccc2c(nc(Nc3c(C)cccc3Cl)c3cnc(C)n32)c1OC | 7.4 |
| c1ccc2c(c1)nc(NC1CC1)c1cncn12 | 3170 |
| Cc1cccc(Cl)c1Nc1nc2ccccc2n2cncc12 | 9 |
| Fc1cccc(Nc2nc3ccccc3n3cncc23)c1 | 1330 |

| SMILES | IC50 [nM] |
| --- | --- |
| COc1ccccc1Nc1nc2ccccc2n2cncc12 | 5520 |
| COc1ccc2c(nc(Nc3c(C)cccc3Cl)c3cnc(CCCO)n32)c1OC | 69 |
| CCc1cccc(CC)c1Nc1nc2ccccc2n2cncc12 | 1690 |
| CCNC(=O)c1ncc2c(Nc3c(C)cccc3Cl)nc3c(OC)c(OC)ccc3n12 | 665 |
| Cc1cc(C)c(Nc2nc3ccccc3n3cncc23)c(Cl)c1 | 30 |
| Fc1cccc(F)c1Nc1nc2ccccc2n2cncc12 | 360 |
| COc1ccc2c(nc(Nc3c(C)cccc3Cl)c3cnc(/C=N/O)n32)c1OC | 4.3 |
| Brc1ccccc1Nc1nc2ccccc2n2cnc(-c3ccccc3)c12 | > 12500 |
| Cc1ccccc1C(=O)Nc1nc2ccccc2n2cncc12 | > 12500 |
| Brc1ccc(Nc2nc3ccccc3n3cncc23)cc1 | > 12500 |
| COc1ccc2c(nc(Nc3c(C)cccc3Cl)c3cnc(C=O)n32)c1OC | 10 |
| Cc1cccc(C)c1Nc1nc2ccccc2n2cncc12 | 16 |
| Cc1ncn2c1c(Nc1ccccc1Cl)nc1ccccc12 | 30 |
| Clc1cccc(CCNc2nc3ccccc3n3cncc23)c1 | 4390 |
| CCCNc1nc2ccccc2n2cncc12 | 2680 |
| Cc1ncc2c(Nc3ccccc3Br)nc3ccccc3n12 | 180 |
| Brc1cccc(Br)c1Nc1nc2ccccc2n2cncc12 | 50 |
| Brc1ccccc1Nc1nc2ccccc2n2ccnc12 | > 50000 |
| c1ccc(CNc2nc3ccccc3n3cncc23)cc1 | > 12500 |
| Fc1ccccc1Nc1nc2ccccc2n2cncc12 | 390 |
| COc1ccc2c(nc(Nc3c(C)cccc3Cl)c3cnc(C(O)C(C)C)n32)c1OC (stereo not drawn) | 238 |
| Clc1cccc(Cl)c1Nc1nc2ccccc2n2cncc12 | 9 |

System: T-cell
Assay: Compound was tested for potency against anti-CD3/anti-CD28 induced PBL proliferation of human peripheral blood T-cells

| SMILES | IC50 [nM] |
| --- | --- |
| COc1ccc2c(nc(Nc3c(C)cccc3Cl)c3cncn32)c1OC | 670 |
| Brc1ccccc1Nc1nc2ccccc2n2cncc12 | 17000 |
| Cc1cccc(Cl)c1Nc1nc2ccccc2n2cncc12 | 7000 |
| Cc1cccc(C)c1Nc1nc2ccccc2n2cncc12 | 3000 |
